Experimental findings from patent US11541050B2, “Pyrimidine derivatives for the treatment of viral infections” (JANSSEN SCIENCES IRELAND UC, priority 2011, dated 2023) are described below.

For assay [1], the target named is T1, human TLR7 (wild type sequence) (Homo sapiens, UniProt Q9NYK1).
T1 construct: expressed in transfected cells; host or cells: HEK293
T1 sequence (Q9NYK1 27-1049): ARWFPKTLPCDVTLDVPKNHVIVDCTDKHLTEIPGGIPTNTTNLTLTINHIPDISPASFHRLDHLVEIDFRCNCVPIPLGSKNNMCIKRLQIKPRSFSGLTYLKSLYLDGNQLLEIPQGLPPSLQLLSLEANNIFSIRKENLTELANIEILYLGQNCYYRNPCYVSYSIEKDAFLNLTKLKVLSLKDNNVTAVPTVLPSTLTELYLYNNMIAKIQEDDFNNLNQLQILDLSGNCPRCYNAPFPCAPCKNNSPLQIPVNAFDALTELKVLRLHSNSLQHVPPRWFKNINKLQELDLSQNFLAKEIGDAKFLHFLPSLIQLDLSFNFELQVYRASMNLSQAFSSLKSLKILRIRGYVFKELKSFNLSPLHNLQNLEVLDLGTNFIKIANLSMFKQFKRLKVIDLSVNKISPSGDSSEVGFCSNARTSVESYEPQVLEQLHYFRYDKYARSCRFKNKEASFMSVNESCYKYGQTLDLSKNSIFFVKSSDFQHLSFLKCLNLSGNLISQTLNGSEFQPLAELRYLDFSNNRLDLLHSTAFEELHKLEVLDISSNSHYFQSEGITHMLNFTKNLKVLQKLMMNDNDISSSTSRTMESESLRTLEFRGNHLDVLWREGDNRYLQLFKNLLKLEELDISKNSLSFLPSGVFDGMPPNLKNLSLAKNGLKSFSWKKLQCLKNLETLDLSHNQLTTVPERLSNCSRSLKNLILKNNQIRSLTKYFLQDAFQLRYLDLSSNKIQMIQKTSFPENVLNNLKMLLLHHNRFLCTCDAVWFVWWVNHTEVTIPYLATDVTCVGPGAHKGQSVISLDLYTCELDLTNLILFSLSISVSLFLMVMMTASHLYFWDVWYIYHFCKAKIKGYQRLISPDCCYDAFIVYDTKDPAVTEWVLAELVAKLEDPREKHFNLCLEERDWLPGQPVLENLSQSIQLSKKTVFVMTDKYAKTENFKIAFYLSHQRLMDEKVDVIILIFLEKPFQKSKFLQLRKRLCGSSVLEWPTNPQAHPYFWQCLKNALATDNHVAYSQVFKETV
In words: TLR7 cellular NFκB-luc reporter assay, wild type TLR7. As to conditions: lowest effective concentration, wild type TLR7 (compounds 1-73). Also noted: unit not given here. The format is cell-based. In outline:
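HEK293, transient transfection 48 h (CMV-TLR7/8 WT or 2nd-LRR deletion + NFκB-luc); compound 6 h, 37 °C, 5% CO2; Steady Lite luciferase; quadruplicate dose-response; LEC = conc. ≥2× above assay SD.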

Assay [2] deals with HCV replicon in Huh-7 luc/neo cells. As to the kind of experiment: Suppression of HCV replicon replication by conditioned media from compound-treated PBMC. As to conditions: Hepatitis C virus, Huh-7; read-out: PBMC-HUH7_EC50. The format is cell-based, HCV type 1 b. The method, boiled down: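 Human PBMC (≥2 donors, RPMI + 10% human AB serum, 2×10^5 cells/well) incubated overnight with compounds; supernatant transferred onto Huh-7 luc/neo HCV 1b replicon cells. After 24 h, replication read as luciferase activity. Recombinant interferon α-2a served as standard.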

For assay [3], the system named is human TLR8 mutant sequence comprising a deletion in the second leucine-rich repeat. In words: TLR8 cellular NFκB-luc reporter assay, mutant TLR8 with deletion in the second leucine-rich repeat. More on the design: unit not given here. It counts as cell-based. As to conditions: lowest effective concentration, TLR8 mutant with deletion in second leucine-rich repeat. In outline:
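HEK293 cells transiently co-transfected with CMV-driven mutant TLR7 or TLR8 plasmid plus NFκB-luc reporter, cultured 48 h at 37 °C, then exposed to compound for 6 h at 37 °C, 5% CO2. Luciferase luminescence measured; dose-response curves from quadruplicates.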

The compound `CCCCNc1nc(N)ncc1OC` [Compound 4] returned a TLR7-wt_LEC in assay [1] of 6.71. Besides, in assay [2], the EC50 was 1140 nM. The compound further had a TLR8-dIRR2_LEC in assay [3] of 1.10.
`CCCCNc1nc(N)ncc1OCC(C)C` [Compound 31] yielded a TLR7-wt_LEC in assay [1] of more than 24.59. The EC50 in assay [2] came out at 10400 nM. In addition, the TLR8-dIRR2_LEC in assay [3] was 6.46.
With `CCCCCOc1cnc(N)nc1NCCCC` [Compound 32], the TLR7-wt_LEC in assay [1] came out at 10.60. Also, in assay [2], the EC50 was 1060 nM. For the same compound, the TLR8-dIRR2_LEC in assay [3] stood at 4.43.
`CCCCCNc1nc(N)ncc1Oc1ccccc1OC` [Compound 38] yielded a TLR7-wt_LEC in assay [1] of 21.97. Also, in assay [2], the EC50 was determined as 11300 nM. Besides, the TLR8-dIRR2_LEC in assay [3] stood at 22.88.
Taken in the same sequence, the figures for `CCCCCNc1nc(N)ncc1OC` [Compound 56] were 12.02, 800 nM and 1.47.
Taken in the same sequence, the figures for `CCCCNc1nc(N)ncc1OCc1ccc(-c2ccccc2)cc1` [Compound 58] were 6.48, 2990 nM and 2.17.
The compound `CCCCNc1nc(N)ncc1OCC` [Compound 60] registered a TLR7-wt_LEC in assay [1] of 5.58. Further, the EC50 in assay [2] was 1910 nM. This compound also showed a TLR8-dIRR2_LEC in assay [3] of 0.65.
For the compound `CCCCCNc1nc(N)ncc1OCC` [Compound 63], the TLR7-wt_LEC in assay [1] is 2.78. Besides, in assay [2], the EC50 was found to be 2690 nM. This compound registered a TLR8-dIRR2_LEC in assay [3] of 1.94.
For `CCCCNc1nc(N)ncc1Oc1ccccc1OC` [Compound 64], the TLR7-wt_LEC in assay [1] is reported as 8.47. The EC50 in assay [2] was determined as 4290 nM. In assay [3], the TLR8-dIRR2_LEC stood at 7.65.
In assay [1], `CCCCCCNc1nc(N)ncc1OCC` [Compound 70] returned a TLR7-wt_LEC of 15.84. Also, in assay [2], the EC50 was more than 23800 nM. The same compound came in with a TLR8-dIRR2_LEC in assay [3] of more than 24.59.
